# According to paper PMC3162300 (Journal of Natural Products, 2011):
# Marks after values point to notes of the source that are not given here.
# Key:
# [1] = DPPH free-radical-scavenging assay; settings: up to 100 μM
# [2] = system: croton oil-induced ear dermatitis (edema); assay: Croton oil-induced mouse ear dermatitis: edematous response
# 5-LO = target: T1, 5-LO (Homo sapiens, UniProt P09917); type: cell-based; settings: read-out: inhibition of leukotriene formation
# T1 sequence (P09917 1-674): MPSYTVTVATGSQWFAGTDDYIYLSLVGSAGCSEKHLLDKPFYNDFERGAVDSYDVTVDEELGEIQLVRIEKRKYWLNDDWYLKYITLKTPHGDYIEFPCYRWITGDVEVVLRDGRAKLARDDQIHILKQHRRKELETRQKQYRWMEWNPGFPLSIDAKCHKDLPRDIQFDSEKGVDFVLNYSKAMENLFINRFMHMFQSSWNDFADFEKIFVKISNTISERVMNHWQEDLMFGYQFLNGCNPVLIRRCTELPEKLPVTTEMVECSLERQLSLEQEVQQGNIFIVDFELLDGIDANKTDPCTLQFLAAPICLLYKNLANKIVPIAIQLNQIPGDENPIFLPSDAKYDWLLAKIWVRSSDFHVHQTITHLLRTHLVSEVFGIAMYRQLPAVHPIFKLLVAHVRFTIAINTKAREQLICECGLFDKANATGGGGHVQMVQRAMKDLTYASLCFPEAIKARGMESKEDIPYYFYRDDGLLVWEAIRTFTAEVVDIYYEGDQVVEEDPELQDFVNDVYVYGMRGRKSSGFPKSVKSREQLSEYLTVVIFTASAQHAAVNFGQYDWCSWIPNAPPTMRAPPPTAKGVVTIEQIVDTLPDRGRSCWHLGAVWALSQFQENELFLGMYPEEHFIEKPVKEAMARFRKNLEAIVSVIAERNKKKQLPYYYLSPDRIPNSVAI
# [3] = system: croton oil-induced ear dermatitis (ear tissue histology); assay: Histological analysis of ear tissue after croton oil dermatitis
# COX-2 = target: T2, COX-2 (Ovis aries, UniProt P79208); assay: COX-2 inhibition assay; type: biochemical, sheep; settings: read-out: inhibition of COX-2
# T2 sequence (P79208 17-603): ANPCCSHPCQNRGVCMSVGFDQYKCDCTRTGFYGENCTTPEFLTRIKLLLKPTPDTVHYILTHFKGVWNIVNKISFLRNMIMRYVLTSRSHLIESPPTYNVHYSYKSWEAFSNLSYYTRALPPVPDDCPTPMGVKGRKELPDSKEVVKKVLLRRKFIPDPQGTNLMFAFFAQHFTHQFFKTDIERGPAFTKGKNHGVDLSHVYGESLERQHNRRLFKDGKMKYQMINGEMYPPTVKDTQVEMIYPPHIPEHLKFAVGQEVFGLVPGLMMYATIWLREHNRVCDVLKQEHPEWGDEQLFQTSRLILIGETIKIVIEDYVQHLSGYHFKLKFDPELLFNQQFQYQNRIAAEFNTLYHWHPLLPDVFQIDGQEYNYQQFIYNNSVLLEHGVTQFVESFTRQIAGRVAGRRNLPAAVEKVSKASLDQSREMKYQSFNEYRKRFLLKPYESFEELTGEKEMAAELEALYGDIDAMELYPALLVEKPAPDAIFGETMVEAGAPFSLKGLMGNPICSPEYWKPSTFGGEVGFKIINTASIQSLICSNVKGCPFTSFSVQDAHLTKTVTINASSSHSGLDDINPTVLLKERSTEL
# COX-1 = target: T3, COX-1 (Ovis aries, UniProt P05979); assay: COX-1 inhibition assay; type: biochemical, ram; settings: read-out: inhibition of COX-1
# T3 sequence (P05979 25-600): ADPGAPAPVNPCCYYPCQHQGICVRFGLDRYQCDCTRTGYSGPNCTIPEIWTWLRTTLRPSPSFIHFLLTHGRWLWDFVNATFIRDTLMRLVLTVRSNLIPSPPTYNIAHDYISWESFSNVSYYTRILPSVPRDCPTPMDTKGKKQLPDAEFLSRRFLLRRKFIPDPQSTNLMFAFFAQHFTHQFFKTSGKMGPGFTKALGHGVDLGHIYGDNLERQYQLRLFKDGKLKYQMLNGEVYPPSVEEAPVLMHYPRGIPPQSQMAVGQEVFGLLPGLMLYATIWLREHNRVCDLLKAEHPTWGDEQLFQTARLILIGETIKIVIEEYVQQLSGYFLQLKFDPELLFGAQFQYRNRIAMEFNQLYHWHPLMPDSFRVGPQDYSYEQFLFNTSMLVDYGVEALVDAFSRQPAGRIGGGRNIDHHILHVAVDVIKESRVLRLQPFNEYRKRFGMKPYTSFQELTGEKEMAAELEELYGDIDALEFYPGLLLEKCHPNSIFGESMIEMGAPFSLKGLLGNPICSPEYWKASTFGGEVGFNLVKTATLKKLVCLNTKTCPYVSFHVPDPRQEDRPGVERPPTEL
# IKK2 = target: T4, IKK2 (Homo sapiens, UniProt O14920); assay: IKK2 enzymatic activity assay; type: biochemical; settings: 400 nM
# T4 sequence (O14920 1-756): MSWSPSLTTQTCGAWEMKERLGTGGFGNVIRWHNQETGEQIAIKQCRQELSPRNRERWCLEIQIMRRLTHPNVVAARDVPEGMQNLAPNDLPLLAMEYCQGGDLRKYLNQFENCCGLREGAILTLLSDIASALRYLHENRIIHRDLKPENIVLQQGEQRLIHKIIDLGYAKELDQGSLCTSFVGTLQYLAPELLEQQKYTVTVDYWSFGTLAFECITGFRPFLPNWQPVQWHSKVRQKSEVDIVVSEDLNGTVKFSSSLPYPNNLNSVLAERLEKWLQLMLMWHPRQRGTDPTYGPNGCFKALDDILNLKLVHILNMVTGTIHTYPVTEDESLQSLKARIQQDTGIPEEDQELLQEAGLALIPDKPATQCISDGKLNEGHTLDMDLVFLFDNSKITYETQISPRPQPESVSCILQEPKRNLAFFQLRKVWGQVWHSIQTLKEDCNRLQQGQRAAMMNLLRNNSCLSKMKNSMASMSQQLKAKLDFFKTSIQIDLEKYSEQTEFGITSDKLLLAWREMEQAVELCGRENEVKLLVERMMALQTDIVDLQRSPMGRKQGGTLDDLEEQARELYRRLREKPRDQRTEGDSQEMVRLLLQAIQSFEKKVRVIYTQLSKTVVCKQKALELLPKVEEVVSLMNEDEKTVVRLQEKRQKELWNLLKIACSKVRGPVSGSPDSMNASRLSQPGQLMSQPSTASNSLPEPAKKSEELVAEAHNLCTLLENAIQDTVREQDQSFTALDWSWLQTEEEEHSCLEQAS
# [4] = dose giving 50% inhibition of edema, 6 h, topical
# [5] = topical dose 0.10 μmol/cm^2, 6 h
# [6] = topical dose 0.30 μmol/cm^2, 6 h
# [7] = topical dose 1.00 μmol/cm^2, 6 h
inhibition at 50 µM (5-LO),inhibition at 50 µM (COX-2),inhibition at 50 µM (COX-1),SMILES,effect in DPPH assay [1],"ID50 (μg/cm^2) [2, 4]","edema (mg) mean ± SE [2, 5]","edema (mg) mean ± SE [2, 6]","edema (mg) mean ± SE [2, 7]","histological finding in ear tissue ([3]; 0.4 μmol/cm^2, 3-48 h)","edema (mg) mean ± SE ([2]; topical dose 0.01 μmol/cm^2, 6 h)","edema (mg) mean ± SE ([2]; topical dose 0.03 μmol/cm^2, 6 h)","histological finding in ear tissue ([3]; 0.04 μmol/cm^2, 3-48 h)","ID50 (μmol/cm^2) [2, 4]",effect on IKK2 enzymatic activity (IKK2)
80.2 to 94.6%,–,–,"C/C=C/c1ccc2c(c1)[C@@H](C)[C@H](c1ccc(O)cc1)O2 [compound 7, (+)-conocarpan]",no effect,82 μg/cm^2,5.2 ± 0.4 ^a mg,3.8 ± 0.2 ^a mg,1.3 ± 0.1 ^a mg,general reduction of these vascular and cellular changes due to inflammation,–,–,–,–,–
80.2 to 94.6%,–,–,"COc1ccc(-c2cc3cc(CCCO)ccc3o2)c(O)c1 [compound 5, 2-(2-hydroxy-4-methoxyphenyl)-5-(3-hydroxypropyl)benzofuran]",–,107 μg/cm^2,5.2 ± 0.3 ^a mg,3.4 ± 0.2 ^a mg,2.3 ± 0.2 ^a mg,general reduction of these vascular and cellular changes due to inflammation,–,–,–,–,–
–,–,–,"COc1ccc2c(c1)c(CC(=O)O)c(C)n2C(=O)c1ccc(Cl)cc1 [indomethacin, reference compound]",–,104 μg/cm^2,5.2 ± 0.4 ^a mg,3.4 ± 0.3 ^a mg,1.4 ± 0.2 ^a mg,reduced mast cell degranulation and leukocyte infiltration at all observation times,–,–,–,–,–
–,57.2 to 83.3%,57.2 to 83.3%,"C/C=C/c1ccc2oc(-c3ccc(O)cc3OC)cc2c1 [compound 9, rataniaphenol III]",–,134 μg/cm^2,6.1 ± 0.2 mg,4.4 ± 0.3 ^a mg,2.1 ± 0.3 ^a mg,–,–,–,–,–,–
80.2 to 94.6%,–,–,"COc1cc(O)ccc1-c1cc2cc(CCCO)ccc2o1 [compound 1, 5-(3-hydroxypropyl)-2-(2-methoxy-4-hydroxyphenyl)benzofuran]",–,134 μg/cm^2,6.0 ± 0.3 ^a mg,4.7 ± 0.3 ^a mg,1.7 ± 0.1 ^a mg,–,–,–,–,–,–
–,57.2 to 83.3%,57.2 to 83.3%,"C/C=C/c1ccc2oc(-c3ccc(O)cc3O)cc2c1 [compound 6, 2-(2,4-dihydroxyphenyl)-5-(E)-propenylbenzofuran]",–,160 μg/cm^2,5.9 ± 0.3 ^a mg,4.9 ± 0.3 ^a mg,2.5 ± 0.3 ^a mg,–,–,–,–,–,–
–,–,–,"C[C@@H]1[C@H](C)[C@@H](c2ccc(O)cc2)O[C@H]1c1ccc(O)cc1 [compound 3, meso-3,3′-didemethoxynectandrin B]",–,102 μg/cm^2,5.9 ± 0.3 ^a mg,3.3 ± 0.3 ^a mg,1.9 ± 0.2 ^a mg,–,–,–,–,–,–
–,57.2 to 83.3%,57.2 to 83.3%,"C/C=C/c1ccc2oc(-c3ccc(O)cc3)cc2c1 [compound 8, 2-(4-hydroxyphenyl)-5-(E)-propenylbenzofuran]",no effect,110 μg/cm^2,5.9 ± 0.3 ^a mg,4.5 ± 0.3 ^a mg,1.8 ± 0.3 ^a mg,–,–,–,–,–,–
–,–,–,"C[C@]12CCC(=O)C=C1CC[C@@H]1[C@@H]2[C@@H](O)C[C@@]2(C)[C@H]1CC[C@]2(O)C(=O)CO [hydrocortisone, reference compound]",–,11 μg/cm^2,1.6 ± 0.2 ^a mg,–,–,–,4.9 ± 0.3 ^a mg,3.1 ± 0.3 ^a mg,attenuation of all the vascular and cellular signs of inflammation,–,–
–,–,–,"C/C=C/c1ccc2oc(-c3ccc(OC)cc3O)cc2c1 [compound 10, rataniaphenol I]",–,160 μg/cm^2,6.2 ± 0.3 mg,4.6 ± 0.3 ^a mg,2.5 ± 0.3 ^a mg,–,–,–,–,–,–
–,–,–,"C/C=C/c1ccc2c(c1)C(CO)[C@@H](c1ccc(O)cc1)O2 (stereo in doubt) [compound 4, (2S,3S)-2,3-dihydro-3-hydroxymethyl-2-(4-hydroxyphenyl)-5-(E)-propenylbenzofuran]",–,118 μg/cm^2,5.7 ± 0.4 ^a mg,4.4 ± 0.3 ^a mg,1.7 ± 0.2 ^a mg,–,–,–,–,0.42 μmol/cm^2,–
–,57.2 to 83.3%,57.2 to 83.3%,"C/C=C/c1ccc2oc(-c3ccc(O)cc3)c(C)c2c1 [compound 11, rataniaphenol II]",no effect,106 μg/cm^2,6.0 ± 0.4 mg,4.0 ± 0.2 ^a mg,1.7 ± 0.2 ^a mg,–,–,–,–,–,–
–,–,–,NC(=O)Nc1sc(-c2ccc(F)cc2)cc1C(N)=O [IKK2 inhibitor IV],–,–,–,–,–,–,–,–,–,–,completely suppressed IKK2 enzymatic activity to the background level
–,–,–,"C[C@@H]1[C@H](C)[C@@H](c2ccc(O)cc2)O[C@@H]1c1ccc(O)cc1 [compound 2, (−)-larreatricin]",–,131 μg/cm^2,5.6 ± 0.3 ^a mg,4.2 ± 0.4 ^a mg,2.3 ± 0.2 ^a mg,–,–,–,–,–,–
